Source: ChEMBL document CHEMBL5331108, “Design and Synthesis of 4-Fluorophenyl-5-methylene-2(5H)-furanone Derivatives as Potent Quorum Sensing Inhibitors” (J Med Chem, 2023)
Calls of active or inactive are those of the source. The calls are words filed in the database; no cut-off is given here.

Experiments:
Pseudomonas aeruginosa [1] = experiment: Synergistic antibacterial activity against Pseudomonas aeruginosa 27853 assessed as inhibition of bacterial growth at 1 to 256 ug/ml incubated for 24 hrs in the presence of Ciprofloxacin by absorbance based microplate reader analysis; assay type: functional, organism-based; settings: dose 1-256 µg/ml
Pseudomonas aeruginosa [2] = experiment: Synergistic antibacterial activity against Pseudomonas aeruginosa PAO1 assessed as inhibition of bacterial growth at 1 to 256 ug/ml incubated for 24 hrs in the presence of Clarithromycin by absorbance based microplate reader analysis; assay type: functional, organism-based; settings: dose 1-256 µg/ml
[3] = Inhibition of quorum sensing system in Escherichia coli pEAL08-2 harboring pqsR gene with pqsA::lacZ translation fusion assessed as inhibition of pqsA translation activation by measuring inhibition of […] activity incubated for 8 hrs by absorbance based analysis; settings: dose 32-128 µg/ml
Pseudomonas aeruginosa [4] = experiment: Synergistic antibacterial activity against Pseudomonas aeruginosa 27853 assessed as inhibition of bacterial growth at 256 ug/ml incubated for 24 hrs in the presence of Clarithromycin by absorbance based microplate reader analysis relative to control; assay type: functional
[5] = Inhibition of quorum sensing system in Escherichia coli MG4/pKDT17 harboring lasR gene with lasB::lacZ translation fusion assessed as inhibition of lasR translation activation by measuring inhibition of […] activity incubated for 8 hrs by absorbance based analysis; settings: dose 32-128 µg/ml
Pseudomonas aeruginosa [6] = experiment: Synergistic antibacterial activity against Pseudomonas aeruginosa PAO1 assessed as inhibition of bacterial growth at 1 to 256 ug/ml incubated for 24 hrs in the presence of ciprofloxacin by absorbance based microplate reader analysis; assay type: functional, organism-based; settings: dose 1-256 µg/ml
Pseudomonas aeruginosa [7] = experiment: Inhibition of biofilm formation in Pseudomonas aeruginosa PAO1 assessed as effect on biofilm morphology at 102.4 ug/ml incubated for 24 hrs by scanning electron microscopic analysis; assay type: functional, organism-based; settings: dose 102.4 µg/ml
Bacillus pumilus = experiment: Antibacterial activity against penicillin-susceptible Bacillus pumilus CMCC63202 assessed as inhibition of bacterial growth incubated for 20 hrs by CLSI protocol based microdilution method; assay type: functional
Pseudomonas aeruginosa [8] = experiment: Inhibition of biofilm formation in Pseudomonas aeruginosa PAO1 at 32 ug/ml incubated for 20 hrs by crystal violet staining based analysis; assay type: functional
[9] = Inhibition of quorum sensing system in Pseudomonas aeruginosa PAO1 transfected with pqsA-gfp reporter assessed as inhibition of fluorescence expression incubated for >=12 hrs by microplate reader analysis; settings: dose 32-256 µg/ml
Pseudomonas aeruginosa [10] = experiment: Synergistic antibacterial activity against Pseudomonas aeruginosa PAO1 infected in Kunming mouse model assessed as reduction in viable bacteria at 25 mg/kg, ip pre-infected with bacteria for 1 hrs followed by compound administration and measured after 1 hrs in the presence of ciprofloxacin; assay type: functional, organism-based
Staphylococcus aureus [11] = experiment: Antibacterial activity against methicillin-resistant Staphylococcus aureus ATCC43300 assessed as inhibition of bacterial growth incubated for 20 hrs by CLSI protocol based microdilution method; assay type: functional
Pseudomonas aeruginosa [12] = experiment: Synergistic antibacterial activity against Pseudomonas aeruginosa 27853 assessed as inhibition of bacterial growth incubated for 24 hrs in the presence of Clarithromycin by absorbance based microplate reader analysis; assay type: functional, organism-based; settings: dose 1-256 µg/ml
[13] = Inhibition of quorum sensing system in Pseudomonas aeruginosa PAO1 transfected with lasB-gfp reporter assessed as inhibition of fluorescence expression incubated for >=12 hrs by microplate reader analysis; settings: dose 32-256 µg/ml
[14] = Inhibition of quorum sensing system in Pseudomonas aeruginosa PAO1 assessed as inhibition of protease activity at 102.4 ug/ml incubated for 24 hrs by absorbance based assay; settings: dose 102.4 µg/ml
Pseudomonas aeruginosa [15] = experiment: Antibacterial activity against Pseudomonas aeruginosa 27853 assessed as inhibition of bacterial growth at 256 ug/ml measured after 25 hrs by absorbance based assay; assay type: functional, organism-based; settings: dose 256.0 µg/ml
[16] = Inhibition of quorum sensing system in Pseudomonas aeruginosa PAO1 assessed as inhibition of rhamnolipid production at 102.4 ug/ml incubated for 24 hrs by absorbance based assay; settings: dose 102.4 µg/ml
Pseudomonas aeruginosa [17] = experiment: Synergistic antibacterial activity against Pseudomonas aeruginosa 27853 assessed as inhibition of bacterial growth at 256 ug/ml incubated for 24 hrs in the presence of Ciprofloxacin by absorbance based microplate reader analysis relative to control; assay type: functional
Pseudomonas aeruginosa [18] = experiment: Synergistic antibacterial activity against Pseudomonas aeruginosa PAO1 assessed as inhibition of bacterial growth at highest concentration incubated for 24 hrs in the presence of ciprofloxacin by absorbance based microplate reader analysis relative to control; assay type: functional
[19] = Inhibition of quorum sensing system in Pseudomonas aeruginosa PAO1 transfected with rhlA-gfp reporter assessed as inhibition of fluorescence expression incubated for >=12 hrs by microplate reader analysis; settings: dose 32-256 µg/ml
Escherichia coli = experiment: Antibacterial activity against penicillin-susceptible Escherichia coli ATCC25922 assessed as inhibition of bacterial growth incubated for 20 hrs by CLSI protocol based microdilution method; assay type: functional
[20] = Inhibition of quorum sensing system in Escherichia coli pDSY harboring rhlR gene with rhlA::lacZ translation fusion assessed as inhibition of rhlA translation activation by measuring inhibition of […] activity incubated for 8 hrs by absorbance based analysis; settings: dose 32-128 µg/ml
Staphylococcus aureus [21] = experiment: Antibacterial activity against erthromycin-susceptible Staphylococcus aureus ATCC25923 assessed as inhibition of bacterial growth incubated for 20 hrs by CLSI protocol based microdilution method; assay type: functional
Pseudomonas aeruginosa [22] = experiment: Synergistic antibacterial activity against Pseudomonas aeruginosa PAO1 assessed as inhibition of bacterial growth at 1 ug/ml incubated for 24 hrs in the presence of ciprofloxacin by absorbance based microplate reader analysis relative to control; assay type: functional
Bacillus subtilis = experiment: Antibacterial activity against penicillin-susceptible Bacillus subtilis ATCC9372 assessed as inhibition of bacterial growth incubated for 20 hrs by CLSI protocol based microdilution method; assay type: functional
Pseudomonas aeruginosa [23] = experiment: Antibacterial activity against Pseudomonas aeruginosa PAO1 assessed as inhibition of swarming movement at 25.6 to 102.4 ug/ml incubated for 24 hrs; assay type: functional, organism-based; settings: dose 25.6-102.4 µg/ml
[24] = Inhibition of quorum sensing system in Pseudomonas aeruginosa PAO1 assessed as inhibition of pyocyanin production at 102.4 ug/ml incubated for 18 hrs by absorbance based assay; settings: dose 102.4 µg/ml
[25] = Hemolytic activity in mouse red blood cells assessed as hemolysis rate at 512 ug/ml incubated for 1 hrs by microplate reader analysis relative to control; assay type: toxicity, cell-based, Erythrocyte; settings: red blood cells (erythrocytes), at 512 µg/mL, read-out: Activity
Pseudomonas aeruginosa [26] = experiment: Antibacterial activity against penicillin-susceptible Pseudomonas aeruginosa ATCC27853 assessed as inhibition of bacterial growth incubated for 20 hrs by CLSI protocol based microdilution method; assay type: functional
Pseudomonas aeruginosa [27] = experiment: Antibacterial activity against wild type Pseudomonas aeruginosa […] CGMCC1.12483 assessed as inhibition of bacterial growth incubated for 20 hrs by CLSI protocol based microdilution method; assay type: functional
[28] = Inhibition of quorum sensing system in Pseudomonas aeruginosa PAO1 transfected with gfp reporter gene assessed as effect on fluorescence expression at 32 to 256 ug/ml incubated for >=12 hrs by microplate reader analysis; settings: dose 32-256 µg/ml
Pseudomonas aeruginosa [29] = experiment: Antibacterial activity against Pseudomonas aeruginosa PAO1 assessed as inhibition of bacterial growth at 256 ug/ml measured after 25 hrs by absorbance based assay; assay type: functional, organism-based; settings: dose 256.0 µg/ml

C=C1OC(=O)C(CNC(=O)c2ccc(F)cc2)=C1c1ccc(F)cc1
Activity (Pseudomonas aeruginosa [1]): Active
Activity (Pseudomonas aeruginosa [2]): Active
inhibition [3]: Dose-Dependent Effect
inhibition at 256 µg/mL (Pseudomonas aeruginosa [4]): 82.8%
inhibition [5]: Dose-Dependent Effect
Activity (Pseudomonas aeruginosa [6]): Active
inhibition (Pseudomonas aeruginosa [7]): Active
MIC (Bacillus pumilus): > 512 µg/mL
inhibition at 32 µg/mL (Pseudomonas aeruginosa [8]): 50.7%
inhibition [9]: Dose-Dependent Effect
Activity (Pseudomonas aeruginosa [10]): Active
MIC (Staphylococcus aureus [11]): > 512 µg/mL
Activity (Pseudomonas aeruginosa [12]): Dose-Dependent Effect
inhibition [13]: Dose-Dependent Effect
inhibition [14]: 30.6%
Activity (Pseudomonas aeruginosa [15]): inactive
inhibition [16]: Active
inhibition at 256 µg/mL (Pseudomonas aeruginosa [17]): 77.2%
inhibition (INH) (Pseudomonas aeruginosa [18]): 90.53%
inhibition [19]: Dose-Dependent Effect
MIC (Escherichia coli): > 512 µg/mL
inhibition [20]: Dose-Dependent Effect
MIC (Staphylococcus aureus [21]): > 512 µg/mL
inhibition at 1 µg/mL (Pseudomonas aeruginosa [22]): 60.5%
MIC (Bacillus subtilis): > 512 µg/mL
Activity (Pseudomonas aeruginosa [23]): Active
inhibition [24]: 31.4%
hemolysis at 1 h, 512 ug/ml [25]: > 2.5%
MIC (Pseudomonas aeruginosa [26]): > 512 µg/mL
MIC (Pseudomonas aeruginosa [27]): > 512 µg/mL
inhibition [28]: inactive
Activity (Pseudomonas aeruginosa [29]): inactive
